What was measured:
Type in all cases: physicochemical
[1] = absorption spectra measured in solution (λmax, ε, shift Δλmax after thermal cyclization); design: λmax: unit: nm (local absorption maximum, 350–470 nm range); Δλmax: unit: nm; negative = hypsochromic shift; settings: for Δλmax: shift after thermal cyclization; for λmax: solvent not given; for absorption shift after cyclization Δλmax: after thermal cyclization, negative = hypsochromic
Excerpt: Preference is given to dyes in which the shift in the absorption maximum induced by thermal cyclization, Δλmax, is 25 nm or more, preferably ≧35 nm, in particular ≧45 nm. If a preferably hypsochromic shift occurs, then Δλmax is negative. For the purposes of the invention, the absorption maximum is the local maximum in the range from 350 to 470 nm; it is not necessarily the absolute maximum in the UV/VIS spectrum in the range from 190 to 800 nm.
The light-absorbent compounds preferably have a molar extinction coefficient ε of >20 000 l/mol cm, preferably >30 000 l/mol cm, particularly preferably >40 000 l/mol cm, very particularly preferably >50 000 l/mol cm, at the absorption maximum λmax.
The absorption spectra are, for example, measured in solution.

[2] = cyclization temperature Tcyc by Differential Thermal Analysis (DTA); settings: for Tcyc: table, DTA; for cyclization temperature Tcyc: determined using DTA
Method: The cyclization temperature Tcyc is determined, for example, by means of Differential Thermal Analysis DTA. In the case of the preferred exothermic cyclization, it corresponds to the maximum of the rearrangement signal. The heating rate in the DTA measurements is, for example, 10° C. per minute. Under these conditions, the width at half height of the rearrangement signal is preferably less than 10° C., particularly preferably less than 7° C., very particularly preferably less than 5° C. For the purposes of the invention, the width at half height is the width of the signal at a height halfway between the base and the apex.
cyclization temperature Tcyc: 123° C. (determined using DTA, see description. This also applies to the other examples).

[3] = film formed by the dye (spin coating)
Excerpt: Apart from the abovementioned optical properties, the writeable information layer comprising light-absorbent organic substances has to have a substantially amorphous morphology to keep the noise signal during writing or reading as small as possible. For this reason, it is particularly preferred that crystallization of the light-absorbent substances be prevented in the application of the substances by spin coating from a solution, by vapour deposition and/or sublimation during subsequent covering with metallic or dielectric layers under reduced pressure.
(§1) A 2% strength by weight solution of the dye in 2,2,3,3-tetrafluoropropanol was prepared at room temperature. This solution was applied by means of spin coating to a fused silica substrate. The resulting thickness of the dye film was about 150 nm. This specimen was heated from 50° C. to 133° C. in a stream of helium at a mean heating rate of 3 K/min and subsequently cooled to 81° C. at a mean cooling rate of 1.4 K/min. During the heating and cooling phases, transmission spectra of the specimen in the wavelength range from 200 nm to 1700 nm were recorded. The change in the optical properties resulting from the ring-closure reaction can be observed by looking at the transmission spectra at different temperatures.

[4] = solubility in TFP (2,2,3,3-tetrafluoropropanol)
[5] = index of refraction of spin-coated dye film over temperature cycle
Method: as §1
The absorption band in the region of 450 nm obviously disappears virtually completely and leads to a change in the absorption properties which can be utilized in the wavelength range from 400 to 500 nm for the optical storage and reproduction of data, for example when a laser beam having an appropriate pulse duration and pulse energy heats the dye layer to above 133° C. Furthermore, each absorption also produces a dispersion of the index of refraction over the wavelength. This leads, in particular on the flanks of the absorption bands, to indices of refraction which are lower (short wavelength flank) or higher (long wavelength flank) than 1.4-1.6, which represents the usual range for colourless organic materials. For example, the index of refraction of the dye at 405 nm is 1.17 at the beginning of the temperature cycle and that at 515 nm is […]. After the temperature cycle, when the absorption band has disappeared virtually completely, the decolourized dye has an index of refraction in the range from 1.4 to 1.6 in the visible spectrum. This change in the index of refraction can likewise be utilized for the optical storage and reproduction of data, for example when a laser beam having an appropriate pulse duration and pulse energy heats the dye layer to above 133° C. […]

[6] = molar extinction coefficient at λmax

SMILES	ε ([1]; table)	Δλmax ([1]; table)	λmax ([1]; table)	Tcyc [2]	film [3]	absorption shift after cyclization Δλmax [1]	λmax (methanol) [1]	ε [1, 6]	cyclization temperature Tcyc [2]	solubility [4]	index of refraction ([5]; after the temperature cycle (50 to 133° C.), visible spectrum, decolourized dye)	index of refraction ([5]; at 405 nm, beginning of the temperature cycle, about 150 nm film on fused silica)	index of refraction ([5]; at 515 nm, beginning of the temperature cycle)
CCC1Cc2cc(OC)ccc2/C(=C/C=C(\C#N)C(=O)OCCOC)N1 (centres unmarked) [Example 8]	37 520	−50	444	212 °C	–	–	–	–	–	–	–	–	–
CCc1ccc(N/C=C(/Br)c2c(C#N)c(=O)[nH]c3ccc(CC)cc23)cc1 [Example 12]	32 140	>|100|*	463	161 °C	–	–	–	–	–	–	–	–	–
CCCCNC1=C(/C=C(/C#N)C(=O)OCC)CCC1 [Example 4]	–	–	–	–	glass-like film	−72 nm	441 nm	36 910 l/mol cm	198 °C	> 2%	–	–	–
Cc1ccc(N/C=C\c2c(C#N)c(=O)oc3ccccc23)cc1C [Example 11]	30 820	>|100|*	467	157 °C	–	–	–	–	–	–	–	–	–
CCOC(=O)/C(C#N)=C/C=C1\NCCc2ccccc21 [Example 5]	53 320	−46	440	124 °C	–	–	–	–	–	–	–	–	–
CCc1ccc2c(NC(C)C)c(/C=C\C(=O)OC)c(=O)oc2c1 [Example 3]	–	–	–	–	glass-like film	−20 nm	359 nm	20 700 l/mol cm	206 °C	1%	–	–	–
CCOC(=O)/C(C#N)=C/C(C#N)=C1\NC(CC)Cc2cc(N(C)C)ccc21 (centres unmarked) [Example 9]	63 160	−53	452	207 °C	–	–	–	–	–	–	–	–	–
CCOC(=O)/C(C#N)=C/C=C1\NCCc2cc(OC)c(OC)cc21 [Example 1]	–	–	–	–	glass-like film	−49 nm	447 nm	47 560 l/mol cm	123 °C	> 2%	1.4-1.6	1.17	2.17
CCCCN/C=C\c1c(C(=O)OC(C)C)c(=O)oc2cc(OC)c(OC)cc12 [Example 13]	24 580	−50	422	81 °C	–	–	–	–	–	–	–	–	–

Second part, the compound after the results:

ε ([1]; table)	Δλmax ([1]; table)	λmax ([1]; table)	Tcyc [2]	film [3]	absorption shift after cyclization Δλmax [1]	λmax (methanol) [1]	ε [1, 6]	cyclization temperature Tcyc [2]	solubility [4]	index of refraction ([5]; after the temperature cycle (50 to 133° C.), visible spectrum, decolourized dye)	index of refraction ([5]; at 405 nm, beginning of the temperature cycle, about 150 nm film on fused silica)	index of refraction ([5]; at 515 nm, beginning of the temperature cycle)	SMILES
33 200	−65	445	176 °C	–	–	–	–	–	–	–	–	–	CCOC(=O)/C(C#N)=C/C1=C(Nc2ccc(OC)cc2)CCCC1 [Example 17]
37 840	−70	440	174 °C	–	–	–	–	–	–	–	–	–	CCCCNC1=C(C=C(C#N)C#N)CCC1 [Example 18]
26 670	−38	386	167 °C	–	–	–	–	–	–	–	–	–	COc1ccc(Nc2c(C=C(C#N)C#N)c(=O)oc3ccccc23)cc1OC [Example 16]
21 750	−15	368	175 °C	–	–	–	–	–	–	–	–	–	Cc1ccc(S(=O)(=O)OCc2c(/C=C\NC3CCCCC3)c3ccccc3oc2=O)cc1 [Example 14]
38 540	>|100|*	468	146 °C	–	–	–	–	–	–	–	–	–	N#Cc1c(/C=C\Nc2ccccc2)c2ccc(-n3nccn3)cc2oc1=O [Example 15]

Reference: patent US20020197561A1, “Optical data carrier comprising a cyclizable compound in the information layer” (priority 2001, published 2002)
